Measured values reported in patent US8394829B2, “Bi-functional quinoline analogs” (Gilead Sciences, Inc., priority 2010, dated 2013).

How the values were obtained:
Human recombinant PDE4B2 = target: T1, Human recombinant PDE4B2 (Homo sapiens, UniProt Q07343); test: Inhibition of PDE4B4 enzyme activity (PDE Glo Assay); assay type: biochemical; conditions: human recombinant PDE4B2, 50 nM cAMP; read-out: PDE4 IC50
T1 construct: purchased BPS Bioscience
Procedure, shortened: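 Human recombinant PDE4B2 (0.12 nM) was pre-incubated with compound for 10 min at rt, then 50 nM cAMP was added for 1 hr. After IBMX stop and PKA detection, read-out was Kinase-Glo luminescence. IC50 came from a single-site nonlinear fit of RLU versus concentration.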

[1] = target: T2, human recombinant beta-2 adrenoreceptors (Homo sapiens, UniProt P07550); test: Beta-2 adrenoceptor binding assay ([3H](−)CGP-12177 displacement); conditions: CHO cells expressing human beta-2 adrenoreceptors, [3H](−)CGP-12177 0.3 nM, 120 min
T2 construct: expressed in transfected cells; host or cells: CHO cells
Procedure, shortened: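 Displacement of [3H](−)CGP-12177 (0.3 nM) from human recombinant beta-2 receptors expressed in CHO cells, measured after 120 min incubation with test compound. Bound radioligand counted by scintillation; IC50 taken from concentration-response curves as 50% of each compound's maximal inhibition.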

[2] = target: T2, human recombinant beta-2 adrenoreceptors; test: Functional agonism of human recombinant beta-2 adrenoreceptors expressed in CHO cells (cAMP HTRF); assay type: cell-based; conditions: CHO cells expressing human beta-2 adrenoreceptors, cAMP elevation, 30 min
Procedure, shortened: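 CHO cells expressing recombinant receptor incubated with compound for 30 min; intracellular cAMP rise over control read by HTRF. EC50 taken as concentration giving 50% of that compound's own maximal response, with full or partial agonism judged against isoproterenol maximum.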

[3] = system: LPS-induced TNF-α release from human peripheral blood mononuclear cells (PBMC); test: Inhibition of LPS-induced TNF-α release from human PBMC; assay type: cell-based; conditions: LPS 0.4 ng/mL, 6 h, presence or absence of ICI-118551 not given
Procedure, shortened: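 Ficoll-purified primary PBMC, 100,000 cells/well, pre-incubated 30 min ± 10 μM ICI-118551 (± gives PDE4-only vs PDE4 plus beta-2 activity), then compound 1 h at 37 °C (0.1% DMSO). Stimulated with 0.4 ng/mL LPS for 6 h; supernatant TNF-α by bead cytokine assay; IC50 from single-site fit.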

[4] = system: LPS-induced neutrophil recruitment into the lungs; test: Inhibition of LPS-induced neutrophil recruitment into the lungs of Lewis rats; assay type: in vivo; conditions: intra-tracheal dose of 300 μg/kg, 2 h before LPS aerosol, BAL 4 h post-LPS
Method: Inhibition of Lipoploysaccharide (LPS)-Induced Neutrophil Recruitment into the Lungs of Lewis Rats
Rats were anesthetized with 4% isoflurane, placed in the supine position at an angle of 30°, the mouth opened and the trachea exposed. A 22-gauge needle with a syringe attached was introduced into the trachea and test compound in suspension (200 μl volume per 400 g) was delivered into the lungs from approximately one centimeter above the carina. The rats were allowed to recover and two hrs later conscious animals were placed into a chamber and exposed to aerosolized LPS (1.0 mg/mL) at a rate of 3.0 L/min for 20 min. Rats were euthanized 4 h post-LPS exposure by an overdose of pentobarbital (90 mg/kg) by intra-peritoneal injection. […] The supernatant was discarded, the cells were re-suspended in PBS and total cell counts were determined based on a 10 μl sample of re-suspended cells stained with trypan blue and counts performed using a Countess® cell counter (Invitrogen). […] Manual eye counting was performed to determine the percentage number of cells in the cytospun sample (determined as macrophages, neutrophils, eosinophils, T-lymphocytes and eosinophils) and these values were used to determine the total number of each cell type per sample. Typically experiments contained a minimum of six rats per experimental group and the mean±SEM number of neutrophils was determined for each group. […]

T2 sequence (P07550 whole entry): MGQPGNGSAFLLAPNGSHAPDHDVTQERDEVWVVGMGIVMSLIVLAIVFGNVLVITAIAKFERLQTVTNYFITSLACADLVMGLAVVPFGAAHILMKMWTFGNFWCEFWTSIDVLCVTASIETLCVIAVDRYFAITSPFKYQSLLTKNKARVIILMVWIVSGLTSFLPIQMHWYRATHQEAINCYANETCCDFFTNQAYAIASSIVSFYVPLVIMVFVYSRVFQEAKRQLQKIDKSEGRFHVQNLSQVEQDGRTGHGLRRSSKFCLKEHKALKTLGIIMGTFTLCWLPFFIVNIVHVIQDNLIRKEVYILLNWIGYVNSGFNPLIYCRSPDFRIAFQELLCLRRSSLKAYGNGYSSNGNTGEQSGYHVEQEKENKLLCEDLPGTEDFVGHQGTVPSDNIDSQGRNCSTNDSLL
T1 sequence (Q07343 1-564 isoform Q07343-2): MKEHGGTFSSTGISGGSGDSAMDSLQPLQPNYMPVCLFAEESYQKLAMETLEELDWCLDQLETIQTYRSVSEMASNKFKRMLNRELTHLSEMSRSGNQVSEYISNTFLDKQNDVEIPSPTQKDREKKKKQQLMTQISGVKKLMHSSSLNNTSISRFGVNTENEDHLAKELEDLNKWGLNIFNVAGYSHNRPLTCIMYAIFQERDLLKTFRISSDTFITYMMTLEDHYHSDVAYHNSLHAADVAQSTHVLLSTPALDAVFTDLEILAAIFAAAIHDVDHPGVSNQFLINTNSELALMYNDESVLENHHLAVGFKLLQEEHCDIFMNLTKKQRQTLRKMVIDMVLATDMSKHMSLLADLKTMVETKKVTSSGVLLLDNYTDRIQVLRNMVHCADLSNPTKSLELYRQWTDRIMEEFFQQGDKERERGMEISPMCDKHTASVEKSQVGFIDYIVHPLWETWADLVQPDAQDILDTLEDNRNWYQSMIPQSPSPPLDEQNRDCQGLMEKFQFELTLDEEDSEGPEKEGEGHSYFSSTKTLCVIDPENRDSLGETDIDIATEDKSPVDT

- IC50 (Human recombinant PDE4B2): < 100 nM
- IC50 [1]: > 300 nM
- EC50 [2]: > 300 nM
Structure (SMILES): COc1cccc(Nc2c(C(N)=O)cnc3c(C)cc(S(=O)(=O)c4cccc(C(=O)Nc5ccc(CCCCCNC[C@H](O)c6ccc(O)c(CO)c6)cc5)c4)cc23)c1 [Example 26, (R)-6-[[3-[[4-[5-[[2-Hydroxy-2-[4-hydroxy-3-(hydroxymethyl)phenyl]ethyl]amino]pentyl]phenyl]carbamoyl]phenyl]sulfonyl]-4-[(3-methoxyphenyl)amino]-8-methylquinoline-3-carboxamide 2,2,2-trifluoroacetate]
- EC50 [3]: < 100 nM
- neutrophil inhibition [4]: ≤ 40%
